Data taken from patent US8501953B2, “PKM2 modulators for use in the treatment of cancer” (Agios Pharmaceuticals, Inc, priority 2009, dated 2013).

Biological target: PKM2 (Homo sapiens, UniProt P14618)
Experiment: PKM2 Assay (activation; LDH-coupled, NADH absorbance at 340 nm)
Assay type: biochemical
Conditions: PKM2 50 ng/well, ADP 0.7 mM, PEP 0.15 mM, no FBP in Reaction Mix
Protocol: • PKM2 stock enzyme solution was diluted in Reaction Buffer • 2 μL of compound was added into each well first, and then 180 μL of the Reaction Mix was added. • Reaction mixture with compound (without ADP) were incubated for 30 minutes at 4° C. • Plates were re-equilibrated to room temperature prior to adding 20 μL ADP to initiate the reaction. • Reaction progress was measured as changes in absorbance at 340 nm wavelength at room temperature (25° C.) Reaction Mix: PKM2 (50 ng/well), ADP (0.7 mM), PEP (0.15 mM), NADH (180 μM), LDH (2 units) in Reaction Buffer Reaction Buffer: 100 mM KCl, 50 mM Tris pH 7.5, 5 mM MgCl2, 1 mM DTT, 0.03% BSA.

PKM2, sequence (P14618 whole entry): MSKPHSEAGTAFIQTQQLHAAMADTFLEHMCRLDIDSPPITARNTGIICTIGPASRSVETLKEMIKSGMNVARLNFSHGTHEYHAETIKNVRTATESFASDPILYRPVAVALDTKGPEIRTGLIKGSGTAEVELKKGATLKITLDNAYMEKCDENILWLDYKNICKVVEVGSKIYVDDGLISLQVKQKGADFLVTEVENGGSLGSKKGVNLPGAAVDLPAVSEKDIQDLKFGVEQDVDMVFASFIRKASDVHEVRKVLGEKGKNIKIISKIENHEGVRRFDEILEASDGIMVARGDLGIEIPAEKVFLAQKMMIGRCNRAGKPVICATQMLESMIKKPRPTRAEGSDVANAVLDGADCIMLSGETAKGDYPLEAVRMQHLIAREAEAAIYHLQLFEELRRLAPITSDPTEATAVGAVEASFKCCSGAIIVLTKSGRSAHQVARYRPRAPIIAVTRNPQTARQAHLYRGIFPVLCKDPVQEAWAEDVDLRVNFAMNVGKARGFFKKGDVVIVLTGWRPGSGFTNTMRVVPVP

SMILES	AC50
Cn1c(=O)sc2cc(NS(=O)(=O)c3cccs3)ccc21	10000 to 50000 nM
COc1ccc(Cl)cc1NS(=O)(=O)c1ccc2c(c1)oc(=O)n2C	1000 to 10000 nM
Cn1c(=O)oc2cc(S(=O)(=O)Nc3c(F)cccc3F)ccc21	1000 to 10000 nM
Cn1c(=O)oc2cc(S(=O)(=O)Nc3ccc(F)cc3)ccc21	1000 to 10000 nM
COc1ccc(Cl)cc1S(=O)(=O)Nc1cc2[nH]c(=O)oc2cc1C	1000 to 10000 nM
Cc1cc2c(cc1S(=O)(=O)Nc1ccccc1Cl)oc(=O)n2C	1000 to 10000 nM
CCn1c(=O)oc2cc(S(=O)(=O)Nc3ccc(F)cc3)ccc21	1000 to 10000 nM
Cc1cc2oc(=O)n(C)c2cc1NS(=O)(=O)c1cc(Cl)cc(Cl)c1	10000 to 50000 nM
Cc1cc(C)cc(NS(=O)(=O)c2ccc3c(c2)oc(=O)n3C)c1	< 1000 nM
COc1ccc(S(=O)(=O)Nc2cc3c(cc2Cl)oc(=O)n3C)cc1OC	10000 to 50000 nM
COc1ccc(S(=O)(=O)Nc2cc3[nH]c(=O)oc3cc2Cl)cc1OC	> 100000 nM
CCn1c(=O)oc2cc(S(=O)(=O)Nc3cc(Cl)ccc3OC)c(C)cc21	1000 to 10000 nM
COc1cccc(S(=O)(=O)Nc2cc3c(cc2C)oc(=O)n3C)c1	10000 to 50000 nM
Cn1c(=O)sc2cc(S(=O)(=O)Nc3ccc(F)cc3)ccc21	< 1000 nM
Cn1c(=O)oc2cc(Cl)c(S(=O)(=O)Nc3ccccc3Cl)cc21	1000 to 10000 nM
Cc1cc2oc(=O)n(C)c2cc1NS(=O)(=O)c1ccc(F)c(F)c1	> 100000 nM
Cc1cc2oc(=O)n(C)c2cc1S(=O)(=O)Nc1ccccc1Cl	1000 to 10000 nM
COc1ccc(Cl)cc1S(=O)(=O)Nc1cc2c(cc1F)oc(=O)n2C	10000 to 50000 nM
Cc1cc(C)cc(NS(=O)(=O)c2cc3c(cc2C)oc(=O)n3C)c1	< 1000 nM
Cc1cc2oc(=O)n(C)c2cc1NS(=O)(=O)c1ccccc1Cl	10000 to 50000 nM
O=c1[nH]c2cc(NS(=O)(=O)c3cccs3)c(Cl)cc2o1	1000 to 10000 nM
Cc1cc2oc(=O)n(C)c2cc1S(=O)(=O)Nc1ccc(F)cc1	< 1000 nM
Cc1cc2oc(=O)n(C)c2cc1NS(=O)(=O)c1c(F)cccc1F	> 100000 nM
CCn1c(=O)oc2cc(Cl)c(S(=O)(=O)Nc3ccccc3Cl)cc21	> 100000 nM
O=c1[nH]c2cc(NS(=O)(=O)c3cccs3)ccc2o1	10000 to 50000 nM

SMILES	AC50
Cn1c(=O)oc2cc(F)c(S(=O)(=O)Nc3ccc(F)cc3)cc21	1000 to 10000 nM
Cn1c(=O)oc2cc(S(=O)(=O)Nc3ccc(F)c(Cl)c3)ccc21	< 1000 nM
Cc1ccc(NS(=O)(=O)c2ccc3c(c2)oc(=O)n3C)cc1F	1000 to 10000 nM
Cn1c(=O)oc2cc(S(=O)(=O)Nc3ccc(Cl)c(Cl)c3)ccc21	1000 to 10000 nM
Cc1cc2c(cc1S(=O)(=O)N1CCN(S(=O)(=O)c3c(F)cccc3F)CC1)oc(=O)n2C	1000 to 10000 nM
Cc1ccc(COC(=O)N2CCN(S(=O)(=O)c3cc4oc(=O)n(C)c4cc3C)CC2)cc1	1000 to 10000 nM
Cc1cc2c(cc1S(=O)(=O)N1CCN(C(=O)COc3ccccc3)CC1)oc(=O)n2C	> 100000 nM
Cc1cc2c(cc1S(=O)(=O)N1CCN(C(=O)COc3ccc(-n4cnnn4)cc3)CC1)oc(=O)n2C	10000 to 50000 nM
Cc1cc2c(cc1S(=O)(=O)N1CCN(S(=O)(=O)c3ccc4c(c3)OCCO4)CC1)oc(=O)n2C	< 1000 nM
Cn1c(=O)oc2cc(S(=O)(=O)N3CCN(S(=O)(=O)c4ccc5c(c4)OCCO5)CC3)ccc21	< 1000 nM
COc1cc(NS(=O)(=O)c2ccc3c(c2)oc(=O)n3C)cc(OC)c1	< 1000 nM
Cn1c(=O)oc2cc(S(=O)(=O)Nc3ccc4c(c3)OCO4)ccc21	< 1000 nM
Cc1ccc(NS(=O)(=O)c2ccc3c(c2)oc(=O)n3C)cc1C	< 1000 nM
Cc1cc(NS(=O)(=O)c2ccc3c(c2)oc(=O)n3C)ccc1Cl	< 1000 nM
Cn1c(=O)oc2cc(S(=O)(=O)Nc3cccc(C(F)(F)F)c3)ccc21	1000 to 10000 nM
Cn1c(=O)oc2cc(S(=O)(=O)Nc3cccc(Cl)c3)ccc21	< 1000 nM
Cn1c(=O)oc2cc(S(=O)(=O)Nc3ccc(F)c(F)c3)ccc21	< 1000 nM
Cn1c(=O)oc2cc(S(=O)(=O)Nc3ccc(OC(F)(F)F)c(Br)c3)ccc21	1000 to 10000 nM
Cn1c(=O)oc2cc(S(=O)(=O)Nc3ccc(OC(F)(F)F)c(Cl)c3)ccc21	1000 to 10000 nM
Cn1c(=O)oc2cc(S(=O)(=O)Nc3cc(F)cc(Cl)c3)ccc21	< 1000 nM
Cn1c(=O)oc2cc(S(=O)(=O)Nc3cc(Cl)cc(Cl)c3)ccc21	< 1000 nM
CCc1cccc(NS(=O)(=O)c2ccc3c(c2)oc(=O)n3C)c1	< 1000 nM
COc1ccc(C)cc1S(=O)(=O)Nc1ccc(NS(=O)(=O)c2ccc3c(c2)oc(=O)n3C)cc1	1000 to 10000 nM
Cn1c(=O)oc2cc(S(=O)(=O)NC3CCCCC3)ccc21	1000 to 10000 nM
Cn1c(=O)oc2cc(S(=O)(=O)Nc3cccc4ccccc34)ccc21	1000 to 10000 nM

SMILES	AC50
Cn1c(=O)oc2cc(S(=O)(=O)Nc3ccc4ccccc4c3)ccc21	1000 to 10000 nM
Cn1c(=O)oc2cc(S(=O)(=O)Nc3ccc4ncccc4c3)ccc21	1000 to 10000 nM
Cn1c(=O)oc2cc(S(=O)(=O)Nc3cccc4ncccc34)ccc21	10000 to 50000 nM
Cn1c(=O)oc2cc(S(=O)(=O)Nc3ccc(F)c(C(F)(F)F)c3)ccc21	< 1000 nM
Cn1c(=O)oc2cc(S(=O)(=O)Nc3ccc4ncn(S(=O)(=O)c5cccc6c5oc(=O)n6C)c4c3)ccc21	1000 to 10000 nM
COCCn1c(=O)oc2cc(S(=O)(=O)Nc3cccc(Cl)c3)ccc21	< 1000 nM
COCCn1c(=O)oc2cc(S(=O)(=O)Nc3ccc(F)c(Cl)c3)ccc21	< 1000 nM
COCCn1c(=O)oc2cc(S(=O)(=O)Nc3ccc(F)c(C)c3)ccc21	< 1000 nM
COCCn1c(=O)oc2cc(S(=O)(=O)Nc3cccc(Cl)c3)cc(C)c21	< 1000 nM
COCCn1c(=O)oc2cc(S(=O)(=O)Nc3ccc(F)c(Cl)c3)cc(C)c21	< 1000 nM
Cc1cc(NS(=O)(=O)c2cc(C)c3c(c2)oc(=O)n3C)ccc1F	< 1000 nM
Cc1cc(S(=O)(=O)Nc2cccc(Cl)c2)cc2oc(=O)n(C)c12	< 1000 nM
Cc1cc(S(=O)(=O)Nc2ccc(F)c(Cl)c2)cc2oc(=O)n(C)c12	< 1000 nM
COCCn1c(=O)oc2cc(S(=O)(=O)Nc3ccc(F)c(C)c3)cc(C)c21	< 1000 nM
Cc1cc(NS(=O)(=O)c2cc(C)c3c(c2)oc(=O)n3CCN2CCOCC2)ccc1F	1000 to 10000 nM
Cc1cc(S(=O)(=O)Nc2ccc(F)c(Cl)c2)cc2oc(=O)n(CCN(C)C)c12	< 1000 nM
Cc1cc(NS(=O)(=O)c2cc(CN3CCCCC3)c3c(c2)oc(=O)n3C)ccc1F	1000 to 10000 nM
Cc1cc(NS(=O)(=O)c2cc(CN3CCOCC3)c3c(c2)oc(=O)n3C)ccc1F	1000 to 10000 nM
Cc1cc(NS(=O)(=O)c2cc(CN(C)C)c3c(c2)oc(=O)n3C)ccc1F	> 100000 nM
Cn1c(=O)oc2cc(Cl)c(S(=O)(=O)Nc3ccccc3F)cc21	1000 to 10000 nM
Cn1c(=O)oc2cc(F)c(S(=O)(=O)Nc3c(F)cccc3F)cc21	> 100000 nM
Cc1cc2oc(=O)n(C)c2cc1S(=O)(=O)N1CCN(c2ccc(C(F)(F)F)cn2)CC1	1000 to 10000 nM
Cc1cc(C)cc(NS(=O)(=O)c2ccc3oc(=O)n(C)c3c2)c1	< 1000 nM
Cc1cc2oc(=O)n(C)c2cc1S(=O)(=O)N1CCCN(c2ccc(C(F)(F)F)cn2)CC1	1000 to 10000 nM
Cn1c(=O)oc2cc(F)c(S(=O)(=O)N3CCN(S(=O)(=O)c4ccc5c(c4)OCCO5)CC3)cc21	< 1000 nM

SMILES	AC50
COc1ccc(Cl)cc1S(=O)(=O)N1CCN(S(=O)(=O)c2cc3c(cc2F)oc(=O)n3C)CC1	< 1000 nM
Cn1c(=O)oc2cc(F)c(S(=O)(=O)N3CCN(S(=O)(=O)c4c(F)cccc4F)CC3)cc21	< 1000 nM
COc1ccc(Cl)cc1S(=O)(=O)Nc1ccc(NS(=O)(=O)c2cc3c(cc2C)oc(=O)n3C)cc1	> 100000 nM
Cc1cc2oc(=O)n(C)c2cc1S(=O)(=O)Nc1cc(F)cc(F)c1	1000 to 10000 nM
Cc1ccc(NS(=O)(=O)c2cc3c(cc2C)oc(=O)n3C)cc1F	< 1000 nM
Cc1cc2oc(=O)n(C)c2cc1S(=O)(=O)Nc1ccc(OC(F)(F)F)c(Cl)c1	1000 to 10000 nM
Cc1ccc(NS(=O)(=O)c2cc3c(cc2C)oc(=O)n3C)cc1C	< 1000 nM
Cc1cc2oc(=O)n(C)c2cc1S(=O)(=O)Nc1ccc2c(c1)OCO2	< 1000 nM
COc1cc(NS(=O)(=O)c2cc3c(cc2C)oc(=O)n3C)cc(OC)c1	1000 to 10000 nM
Cc1cc(C)cc(NS(=O)(=O)c2cc3c(cc2F)oc(=O)n3C)c1	< 1000 nM
CC(=O)Nc1ccc(NS(=O)(=O)c2cc3c(cc2C)oc(=O)n3C)cc1	> 100000 nM
Cc1cc(NS(=O)(=O)c2cc3c(cc2C)oc(=O)n3C)ccc1Cl	< 1000 nM
Cc1cc2oc(=O)n(C)c2cc1S(=O)(=O)Nc1cccc(Cl)c1	< 1000 nM
Cc1cc2oc(=O)n(C)c2cc1S(=O)(=O)Nc1ccc(Cl)c(C(F)(F)F)c1	1000 to 10000 nM
Cc1cc2oc(=O)n(C)c2cc1S(=O)(=O)Nc1ccc(Cl)c(Cl)c1	1000 to 10000 nM
Cc1cc2oc(=O)n(C)c2cc1S(=O)(=O)Nc1ccc(Cl)c(F)c1	1000 to 10000 nM
Cc1cc2oc(=O)n(C)c2cc1S(=O)(=O)Nc1ccc(F)c(Cl)c1	< 1000 nM
Cc1cc2oc(=O)n(C)c2cc1S(=O)(=O)Nc1cc(F)cc(Cl)c1	1000 to 10000 nM
CCc1cccc(NS(=O)(=O)c2cc3c(cc2C)oc(=O)n3C)c1	< 1000 nM
COCCn1c(=O)oc2cc(C)c(S(=O)(=O)Nc3ccc(F)c(C)c3)cc21	1000 to 10000 nM
Cc1cc2oc(=O)n(C)c2cc1S(=O)(=O)N1CCN(C(=O)Cc2ccc(C(F)(F)F)cc2)CC1	> 100000 nM
COCCn1c(=O)oc2cc(C)c(S(=O)(=O)Nc3ccc(F)c(Cl)c3)cc21	1000 to 10000 nM
COc1ccc(Cl)cc1S(=O)(=O)Nc1cc2c(cc1C)oc(=O)n2C [drawing 27]	> 100000 nM
COc1ccc(Cl)cc1S(=O)(=O)Nc1cc2c(cc1C)oc(=O)n2C [drawing 47]	< 1000 nM
